Columns and labels:
[1] = tested on: MOS from metastatic rectal cancer biopsy; test: High-throughput drug screen on patient-derived MOS, CellTiter-Glo viability; assay type: cell-based, human; conditions: 1 μM, 72 hours, 30 tumor cells per MOS
Description: (§1) Drug High-Throughput Screening: Automated liquid handling was provided by the Echo Acoustic Dispenser (Labcyte) for drug administration or Well mate (Thermo Fisher) for cell plating, and assays were performed using a Clariosean plate reader (BMG Labtech). Immediately prior to cell plating, 384 well plates were stamped with 119 FDA-approved drug compounds at a final concentration of 1 μM. The compound library (Approved Oncology Set VI) was provided by the NCI Developmental Therapeutics Program (https://dtp.cancer.gov/). MOS were plated in these drug pre-coated plates at 100 MOS/well with each MOS containing 30 cells/droplet. Cell viabilities were assessed via CellTiter-Glo Luminescent Cell Viability Assay (Promega, USA) 72 hours after cell plating. Percent cytotoxicity was quantified using the following formula: 100*[1-(average CellTiterGlo^drug/average CellTiterGlo^control)].
Since clinical treatment decisions are often made within 10-14 days of diagnosis, an ideal diagnostic assay would give results within 14 days and use minimal tissue (e.g., core biopsies) to predict clinical outcome. In an initial study, a biopsy was obtained from a patient presenting with metastatic rectal cancer, and MOS (30 tumor cells per MOS) were established within 8 days of biopsy. […]

[2] = tested on: metastatic CRC patient-derived MOS; test: Oxaliplatin drug testing of MOS from CRC core biopsies (Cell Titer Glo); assay type: cell-based, human; conditions: 1 μM and 10 μM, cut-off 50% killing
Description: as §1
A prospective clinical study was then designed and conducted. Core biopsies (18-gauge) were obtained from seven additional patients presenting with metastatic CRC, MOS were generated, and drug testing was performed (FIGS. 1H and 1I). MOS (30 tumor cells per MOS) were generated and responses to oxaliplatin were tested within 13 days (9.9 days on average) from time of biopsy for all eight biopsy samples, with a success rate of 100% (8/8) (TABLE 2). Given the limited tissue volume, dosages of 1 μM and 10 μM were selected based on studies disclosed elsewhere (Vlachogiannis et al., Science 359, 920-926, 2018, Ooft et al., Science Translational Med 11, 2019; Ganesh et al., Nat Med 25, 1607-1614, 2019; and Yao et al., Trends Immunol 41, 652-664, 2020). The same cut-off as measured via Cell Titer Glo was used. Among the eight patients, four had oxaliplatin-sensitive MOS and four had oxaliplatin-resistant MOS (FIG. 1J).

metastatic CRC = test: Clinical outcome of patients on oxaliplatin-based therapy (CT scan, time on treatment); assay type: in vivo, human
Source text: All eight patients received oxaliplatin-based therapy per usual treatment guidelines. Patient outcomes were subsequently evaluated by CT scan before and after oxaliplatin treatment (FIGS. 2B-2H), and time-on-treatment was compared to MOS oxaliplatin sensitivity.

[3] = tested on: CRC MOS lines resistant to oxaliplatin; test: Caspase 3/7 fluorescence imaging of oxaliplatin-treated CRC MOS; assay type: cell-based, human; conditions: two oxaliplatin-resistant CRC MOS lines (CRC1282, CRC1297), 20 cells per MOS
Description: Cell death for each MOS was measured by imaging the Caspase 3/7 fluorescence signal and normalizing it by the cell surface area inside each MOS.

lung tumor MOS = test: IO assay with immunotherapy and MHC block, matched TILs; assay type: cell-based, human
Description: IO assay with immunotherapy and MHC block: Lung tumor MOS were incubated with anti-MHC I/II antibodies (W6/32; Tu39, Cat #361702, Biolegend) at a concentration of 20 μg/mL for 45 minutes at 37° C. before seeding into a 96-well plate at a density of 30-50 MOS per well supplied with lung tumor culture medium without Y-27632. Non-MHC-blocked MOS were used as controls. Matched TILs were added to each well at a 5:1 effector: target ratio. Nivolumab was added to wells at a working concentration of 10 μg/mL. The CD2/CD3/CD28 T cell activator reagent was added at a working concentration of 25 μl/mL. Annexin V was added into each well following the manufacturer's instructions.
Adjunctive therapies were explored by first combining PD-1 blockade (nivolumab) with autologous TILs against matched lung tumor MOS. […] TCB were then combined with autologous TILs or allogeneic PBMCs to treat lung cancer MOS (20 cells per MOS) expressing HLA-A2. ESK1* enhanced both TIL- and PBMC-induced tumor cell death compared to DP47 (FIGS. 11I, 11J, 12J, and 12K). Annexin V signals were higher in MOS treated with ESK1* vs. DP47 in all seven lung cancer samples (FIG. 11K). […] Heterogeneity in drug response between MOS from the same patient was observed and quantified (FIGS. 12K and 12L).

[4] = tested on: MOS derived from a kidney cancer patient; test: IO assay, Incucyte Annexin V, kidney tumor MOS; assay type: cell-based, human; conditions: nivolumab alone, day 3 MOS
Description: (§2) IO assay and Incucyte live cell imaging: MOS generated from primary tumor tissue were plated into 96-well plates with a density of 30-50 MOS per well supplied with culture medium without Y compound. Day 3 or day 4 MOS were treated with ESK1*, DP47 or Nivolumab for at least 3 days and imaged in Incucyte during the treatment. When performing immune cell potency assay, pre-activated PBMCs or matched TILs were stained with Cytolight Rapid red dye following manufacturer instructions. Briefly, Cytolight Rapid Red dye in one vial was diluted with 20 μl DMSO and further diluted 10-fold in PBS. PBMC or TILs were incubated at 37° C. with 5 μl diluted Cytolight Red dye (500X) in PBS for 25 minutes. After one wash with PBS, PBMC or TILs were counted and resuspended into wells containing MOS and culture medium at an effector: target ratio of 5:1 or 10:1. Annexin V green dye, Caspase 3/7 green dye, or Cytotox green dye was added into each well following manufacturer instruction. Plates were loaded into Incucyte S3 and images were taken every 2 hours for 4-5 days.
(§3) MOS generated from NSCLC patient samples at a density of 30 tumor cells per MOS formed tumorsphere-like structures in the presence of tumor-resident immune cells. MOS (day 4) were then treated with anti-PD1 therapy nivolumab at 10 μg/mL and Annexin V was used to evaluate cell apoptosis. […]

[5] = tested on: MOS generated from NSCLC patient samples; test: IO assay, Incucyte Annexin V, MOS with tumor-resident immune cells; assay type: cell-based, human; conditions: 10 μg/mL, day 4 MOS, 30 tumor cells per MOS
Description: as §2, §3

In the case of `CCc1c2c(nc3ccc(OC(=O)N4CCC(N5CCCCC5)CC4)cc13)-c1cc3c(c(=O)n1C2)COC(=O)[C@]3(O)CC` [irinotecan], the “% killing” value [1] is reported as < 50%.
For `O=C1[O][Pt]2([NH][C@@H]3CCCC[C@H]3[NH]2)[O]C1=O` [oxaliplatin], the “MOS Prediction” value ([2]; patient CRC-MOS-001) was “Sensitive”, the “MOS Prediction” value ([2]; patient CRC-MOS-002) was “Resistance” and the “MOS Prediction” value ([2]; patient CRC-MOS-003) was “Sensitive”. For the same compound, the “MOS Prediction” value ([2]; patient CRC-MOS-004) was “Resistance”, the “MOS Prediction” value ([2]; patient CRC-MOS-005) was “Sensitive” and the “MOS Prediction” value ([2]; patient CRC-MOS-006) was “Resistance”. For the same compound, the “MOS Prediction” value ([2]; patient CRC-MOS-007) was “Sensitive”, the “MOS Prediction” value ([2]; patient CRC-MOS-008) was “Resistance” and the “patient tumor response to oxaliplatin-based therapy” value (metastatic CRC; metastatic rectal cancer patient, 6 months later) was “still responded”. The “Clinical Outcome” value (metastatic CRC; patient CRC-MOS-001, oxaliplatin-based therapy) was “Response”, the “Response Time” value (metastatic CRC; patient CRC-MOS-001, time on oxaliplatin-based treatment) was 46 wks and the “Clinical Outcome” value (metastatic CRC; patient CRC-MOS-002, oxaliplatin-based therapy) was “Response”. For the same compound, the “Response Time” value (metastatic CRC; patient CRC-MOS-002, time on oxaliplatin-based treatment) was 28 wks, the “Clinical Outcome” value (metastatic CRC; patient CRC-MOS-003, oxaliplatin-based therapy) was “Response” and the “Response Time” value (metastatic CRC; patient CRC-MOS-003, time on oxaliplatin-based treatment) was 38 wks. For the same compound, the “Clinical Outcome” value (metastatic CRC; patient CRC-MOS-004, oxaliplatin-based therapy) was “No Response”, the “Response Time” value (metastatic CRC; patient CRC-MOS-004, time on oxaliplatin-based treatment) was 8 wks and the “Clinical Outcome” value (metastatic CRC; patient CRC-MOS-005, oxaliplatin-based therapy) was “Response”. The “Response Time” value (metastatic CRC; patient CRC-MOS-005, time on oxaliplatin-based treatment) was 36 wks, the “Clinical Outcome” value (metastatic CRC; patient CRC-MOS-006, oxaliplatin-based therapy) was “No Response” and the “Response Time” value (metastatic CRC; patient CRC-MOS-006, time on oxaliplatin-based treatment) was 3 wks. For the same compound, the “Clinical Outcome” value (metastatic CRC; patient CRC-MOS-007, oxaliplatin-based therapy) was “No Response”, the “Response Time” value (metastatic CRC; patient CRC-MOS-007, time on oxaliplatin-based treatment) was 24 wks and the “Clinical Outcome” value (metastatic CRC; patient CRC-MOS-008, oxaliplatin-based therapy) was “No Response”. The “Response Time” value (metastatic CRC; patient CRC-MOS-008, time on oxaliplatin-based treatment) was 6 wks, the “cell killing, Caspase 3/7 signal normalized by cell surface area” value [3] was “only the highest dosages induced significant cell killing” and the “% killing” value [1] was > 50%.
nivolumab was tested, and the “TIL-mediated killing inside MOS (Annexin V)” value (lung tumor MOS; 10 μg/mL with autologous TILs, effector:target 5:1) was “enhanced TIL-mediated killing”, the “TIL-mediated killing inside MOS (Annexin V) with MHC block” value (lung tumor MOS; anti-MHC I/II antibodies 20 μg/mL, autologous TILs) was “abrogated” and the “killing of tumorspheres inside MOS (Annexin V)” value [4] was “did not enhance killing”. For the same compound, the “death of tumorspheres within MOS (Annexin V)” value [5] was “induced death in the tumorspheres”.
